Experiments:
[1] = tested on: NF-Y binding at ICB2 of Topoisomerase IIα promoter; assay: NF-Y gel shift assay (EMSA) at ICB2
[2] = tested on: NF-Y binding at ICB1 of Topoisomerase IIα promoter; assay: NF-Y gel shift assay (EMSA) at ICB1
[3] = tested on: calf thymus DNA (CT-DNA); assay: DNA thermal denaturation (melting) studies; format: binding; details: CT-DNA 100 μM DNAp, compound 20 μM, 37 °C
Summary of the method: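 CT-DNA at 100 μM (50 μM bp) with test compound at 20 μM in pH 7.00 10 mM sodium phosphate/1 mM EDTA, preincubated at 37.0 °C for 0–18 h (up to 72 h for some compounds). Absorbance at 260 nm, heated 1 °C/min over 45–98 °C; Tm from melting-profile midpoint, ΔTm versus free DNA, MeOH-corrected, mean±SD of ≥3.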

[4] = tested on: 170 bp sequence of the human Topo-IIa promoter; assay: DNase I footprinting on Topo-IIa promoter (ICB1, ICB2 sites); format: binding
Procedure: In a similar manner to Example 4, the affinity and sequence selectivity of certain compounds of examples 1 and 2 was evaluated by standard DNA footprinting on a 170 bp sequence of the human Topo-IIa promoter, in accordance with the technique described in Martin, C., et al.
Selected results are shown in FIG. 9, wherein the concentrations of the lanes were 0, 1.6, 8, 40, 200, 1000, 5000 and 25000 nM in each case.
The footprinting results allowed the identification of compounds that could potentially disrupt transcription factor binding at the ICB1 and ICB2 sites. […] These compounds are detailed below in table 3, showing the concentrations (μM) at which the PBD-heterocycle conjugates bind at ICB1 and ICB2.

[5] = tested on: human c-myc oncogene; details: read-out: IC50 to arrest PCR of the c-myc gene; cited from earlier work
[6] = tested on: HIV-1 LTR; details: read-out: IC50 to arrest PCR of the HIV gene; cited from earlier work

| Structure (SMILES) | Lowest concentration at which NF-Y binding inhibition was observed [1] | Lowest concentration at which NF-Y binding inhibition was observed [2] | Induced ΔTm after incubation 0 hours ([3]; pH 7.00, 0 hours) | Induced ΔTm after incubation 4 hours ([3]; pH 7.00, 4 hours) | Induced ΔTm after incubation 18 hours ([3]; pH 7.00, 18 hours) | Induced ΔTm after incubation 72 hours ([3]; pH 7.00, 72 hours) | Concentration at which DNA binding is observed, ICB1 ([4]; ICB1 site) | Concentration at which DNA binding is observed, ICB2 ([4]; ICB2 site) | IC50 [5] | IC50 [6] |
| --- | --- | --- | --- | --- | --- | --- | --- | --- | --- | --- |
| CCOC(=O)c1nc(NC(=O)c2nc(NC(=O)c3cc(NC(=O)CCCOc4cc5c(cc4OC)C(=O)N4CCC[C@H]4C=N5)cn3C)cn2C)cn1C [Compound 91] | 50 µM | did not inhibit NF-Y binding | 16.8 °C | 17.6 °C | 18.7 °C | 18.8 °C | 5 µM | 5 µM |  |  |
| Cn1cc(NC(=O)c2cc(NC(=O)c3cc(NC=O)cn3C)cn2C)cc1C(=O)NCCC(=N)N [distamycin A] |  |  |  |  |  |  |  |  | 25 µM | 50 µM |
